Source: PubChem BioAssay (NCI)
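Method: 48-hour compound exposure of cells in 96-well plates, five concentrations, linear interpolation of endpoints. TGI is the concentration that stops growth completely.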

Key:
Test in all cases: NCI tumour cell line growth inhibition, 48 h
[1] = system: HCT-15 colon
[2] = system: EKVX NSCLC
[3] = system: SK-MEL-5 melanoma
[4] = system: KM12 colon
[5] = system: NCI-H522 lung
[6] = system: UACC-62 melanoma
[7] = system: A549 NSCLC
[8] = system: SNB-75 CNS
[9] = system: HCC-2998 colon
[10] = system: SK-MEL-2 melanoma
[11] = system: SF-539 CNS
[12] = system: XF 498 CNS
[13] = system: CAKI-1 renal
[14] = system: SNB-19 CNS
[15] = system: K-562 leukemia
[16] = system: RXF 393 renal
[17] = system: SR leukemia
[18] = system: T-47D breast
[19] = system: HS 578T breast
[20] = system: BT-549 breast

Compound	TGI [1]	TGI [2]	TGI [3]	TGI [4]	TGI [5]	TGI [6]	TGI [7]	TGI [8]	TGI [9]	TGI [10]	TGI [11]	TGI [12]	TGI [13]	TGI [14]	TGI [15]	TGI [16]	TGI [17]	TGI [18]	TGI [19]	TGI [20]
Cc1cc(Cl)ccc1C1OC(=O)c2c1ccc1ccccc21 (configuration not stated)	> 100 µM	> 100 µM	> 100 µM	> 100 µM	> 100 µM	> 100 µM	> 100 µM	> 100 µM	> 100 µM	> 100 µM	> 100 µM	> 100 µM	> 100 µM	> 100 µM	> 100 µM					
CC(C)(C)S(=O)OC12CC3CC(CC(C3)C1)C2 (configuration not stated)	> 100 µM	> 100 µM	> 100 µM		> 100 µM	> 100 µM	> 100 µM	> 100 µM		> 100 µM	> 100 µM	> 100 µM		> 100 µM		> 100 µM	> 100 µM			
CN(C)CC1CN=C(NC(=O)Nc2ccccc2)O1 (configuration not stated)	> 100 µM	> 100 µM	> 100 µM	> 100 µM	> 100 µM	> 100 µM	> 100 µM	> 100 µM	> 100 µM	> 100 µM	> 100 µM		> 100 µM	> 100 µM	> 100 µM	> 100 µM	> 100 µM	> 100 µM	> 100 µM	> 100 µM
Cc1ccc(NC(=O)C(=O)Cc2cc[n+]([O-])cc2)cc1	> 100 µM	> 100 µM	> 100 µM	> 100 µM	> 100 µM	> 100 µM	> 100 µM	> 100 µM	> 100 µM	> 100 µM	> 100 µM	> 100 µM	> 100 µM	> 100 µM	> 100 µM	> 100 µM	> 100 µM			
O=C(CC1C(=O)c2ccccc2C1=C1C(=O)c2ccccc2C1=O)c1ccccc1 (configuration not stated)	> 100 µM	> 100 µM	> 100 µM	> 100 µM	97.3 µM	> 100 µM	> 100 µM	> 100 µM	> 100 µM	> 100 µM	> 100 µM	> 100 µM	> 100 µM	> 100 µM	> 100 µM	> 100 µM				
CCOC(OC1=C(C#N)CCCC1)C(C)[Se]c1ccccc1 (configuration not stated)	> 100 µM	> 100 µM	55.6 µM	> 100 µM	30.8 µM	63.2 µM	> 100 µM	> 100 µM	> 100 µM	> 100 µM	38 µM	57 µM	> 100 µM	> 100 µM	> 100 µM	29.8 µM	63.8 µM			
NCc1cc(O)c(O)c(O)c1	> 100 µM	> 100 µM	> 100 µM	> 100 µM	> 100 µM	> 100 µM	> 100 µM	> 100 µM		> 100 µM		> 100 µM	> 100 µM	> 100 µM	> 100 µM	> 100 µM	> 100 µM			
